We go through two molecules from patent US20090124588A1, “Androstane 17-Alpha-Carbonate for Use in the Treatment of Inflammatory and Allergic Conditions” (Glaxo Group Limited, priority 2005, published 2009).

Common to all, as to format: cell-based
Assay [1] has as its target T1, glucocorticoid receptor (Homo sapiens, UniProt P04150).
T1 sequence (P04150 1-777): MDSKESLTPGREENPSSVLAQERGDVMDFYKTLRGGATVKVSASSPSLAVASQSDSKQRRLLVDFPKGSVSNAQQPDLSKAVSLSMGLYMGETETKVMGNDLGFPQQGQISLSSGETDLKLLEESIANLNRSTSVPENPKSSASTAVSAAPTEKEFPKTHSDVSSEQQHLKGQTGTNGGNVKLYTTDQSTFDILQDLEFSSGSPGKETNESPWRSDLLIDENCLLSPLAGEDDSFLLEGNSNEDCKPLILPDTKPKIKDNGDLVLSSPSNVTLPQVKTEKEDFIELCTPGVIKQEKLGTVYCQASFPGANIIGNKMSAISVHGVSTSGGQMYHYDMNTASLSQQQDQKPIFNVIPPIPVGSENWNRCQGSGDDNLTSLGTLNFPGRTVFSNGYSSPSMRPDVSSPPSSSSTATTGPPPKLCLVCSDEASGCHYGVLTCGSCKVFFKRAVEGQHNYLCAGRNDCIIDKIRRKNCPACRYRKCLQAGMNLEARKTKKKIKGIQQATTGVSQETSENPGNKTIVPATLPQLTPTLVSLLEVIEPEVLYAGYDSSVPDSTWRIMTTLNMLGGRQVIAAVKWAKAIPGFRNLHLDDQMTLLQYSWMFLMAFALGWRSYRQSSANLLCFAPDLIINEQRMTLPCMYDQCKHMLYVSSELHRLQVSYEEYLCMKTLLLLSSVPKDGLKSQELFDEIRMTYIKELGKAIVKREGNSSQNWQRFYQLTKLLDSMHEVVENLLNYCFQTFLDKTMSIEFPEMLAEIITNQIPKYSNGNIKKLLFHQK
Nature of the assay: Transrepression activity of glucocorticoid agonists (NF-κB/ELAM-sPAP reporter in A549 cells, TNF stimulated). The conditions noted are these: NF-κB responsive ELAM promoter-sPAP reporter, compound 1 hour, TNF 10 ng/ml 16 hours, read-out: pEC50 transrepression (converted). The protocol:
The functional assay based on that described by K. P. Ray et al., Biochem J. (1997), 328, 707-715 provides a measure of transrepressive activity of a glucocorticoid agonist. A549 cells stably transfected with a reporter gene containing the NF-κB responsive elements from the ELAM gene promoter coupled to sPAP (secreted alkaline phosphatase) are treated with test compounds at appropriate doses for 1 hour at 37° C. The cells are then stimulated with tumour necrosis factor (TNF, 10 ng/ml) for 16 hours, at which time the amount of alkaline phosphatase produced is measured by a standard colourimetric assay. Dose response curves were constructed from which EC50 values were estimated.

The target of assay [2] is T1, glucocorticoid receptor. In words: Transactivation activity of glucocorticoid agonists (MMTV-LTR renilla luciferase reporter in A549 cells). The conditions noted are these: 6 hour at 37° C., read-out: maximal response relative to Dexamethasone (100%). The protocol: The functional assay based on that described by R. J. H. Austin et al., Eur Resp J. (2002), 20, 1386-1392 measures the ability of compounds to directly transactivate gene expression. A549 cells stably transfected with a reporter gene containing the glucocorticoid responsive region of the mouse mammary tumour virus long terminal repeat (MMTV-LTR) coupled to renilla luciferase were treated with test compounds at appropriate doses for 6 hour at 37° C. The amount of luciferase activity present within the cells is then determined by measuring the light emitted following incubation with a suitable substrate. Dose response curves were constructed from which EC50 values were estimated and from which maximal responses are calculated relative to Dexamethasone (100%).

In the next assay the target is T2, Progesterone Receptor (Homo sapiens, UniProt P06401).
T2 construct: expressed in transfected cells; host or cells: CV-1 cells transduced with BacMam virus
T2 sequence (P06401 1-933): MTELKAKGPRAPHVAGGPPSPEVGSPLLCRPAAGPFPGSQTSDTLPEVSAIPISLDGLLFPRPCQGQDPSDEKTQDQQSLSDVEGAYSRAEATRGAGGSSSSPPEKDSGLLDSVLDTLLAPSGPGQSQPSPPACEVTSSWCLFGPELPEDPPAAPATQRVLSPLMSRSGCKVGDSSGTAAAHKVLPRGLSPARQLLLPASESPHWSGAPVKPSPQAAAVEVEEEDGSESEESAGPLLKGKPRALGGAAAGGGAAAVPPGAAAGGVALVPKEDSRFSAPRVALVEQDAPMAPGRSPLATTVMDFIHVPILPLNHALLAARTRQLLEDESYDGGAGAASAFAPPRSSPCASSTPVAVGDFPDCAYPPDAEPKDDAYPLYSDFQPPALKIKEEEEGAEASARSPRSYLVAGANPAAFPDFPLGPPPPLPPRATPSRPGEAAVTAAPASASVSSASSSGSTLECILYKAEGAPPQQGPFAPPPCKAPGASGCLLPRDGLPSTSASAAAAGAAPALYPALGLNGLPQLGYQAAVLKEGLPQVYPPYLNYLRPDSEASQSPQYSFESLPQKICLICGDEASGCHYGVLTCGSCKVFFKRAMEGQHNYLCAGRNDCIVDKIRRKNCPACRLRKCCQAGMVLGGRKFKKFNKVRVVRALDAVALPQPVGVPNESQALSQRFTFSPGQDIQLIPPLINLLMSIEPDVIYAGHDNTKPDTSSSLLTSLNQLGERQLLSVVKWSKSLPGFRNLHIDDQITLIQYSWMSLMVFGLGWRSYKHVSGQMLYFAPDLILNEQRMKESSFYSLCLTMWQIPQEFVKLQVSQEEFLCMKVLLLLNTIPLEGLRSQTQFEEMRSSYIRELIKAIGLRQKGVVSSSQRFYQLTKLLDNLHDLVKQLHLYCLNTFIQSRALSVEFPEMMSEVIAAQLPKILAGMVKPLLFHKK
Nature of the assay: Progesterone receptor activity (CV-1 cells transduced with PRb-BacMam and MMTV-BacMam). The conditions noted are these: 24 h, Steady Glo, read-out: pEC50 progesterone receptor (converted). The protocol:
A T225 flask of CV-1 cells at a density of 80% confluency was washed with PBS, detached from the flask using 0.25% trypsin and counted using a Sysmex KX-21N. Cells were diluted in DMEM containing 10% Hyclone, 2 mM […] and 1% Pen/Strep at 140 cells/μl and transduced with 10% PRb-BacMam and 10% MMTV-BacMam. […] of suspension cells were dispensed to each well of white Nunc 384-well plates, containing compounds at the required concentration. After 24 h 10 μl of Steady Glo were added to each well of the plates. Plates were incubated in the dark for 10 min before reading them on a Viewlux reader. Dose response curves were constructed from which pEC50 values were estimated.

A value given as a limit tells only on which side of the number the result lay.

With `C[C@@H]1C[C@H]2[C@@H]3C[C@H](F)C4=CC(=O)C=C[C@]4(C)[C@@]3(F)[C@@H](O)C[C@]2(C)[C@@]1(OC(=O)OC(C)(C)C)C(=O)OCC#N` [Example 1, Cyanomethyl (6α,11β,16α,17α)-17-({[(1,1-dimethylethyl)oxy]carbonyl}oxy)-6,9-difluoro-11-hydroxy-16-methyl-3-oxoandrosta-1,4-diene-17-carboxylate], the figures for the EC50 at glucocorticoid receptor [1] and at Progesterone Receptor were under 0.1 nM and over 100 nM, respectively. The Emax at glucocorticoid receptor [2] was under 10%.

Consider `CCC(C)(C)OC(=O)O[C@]1(C(=O)OCC#N)[C@H](C)C[C@H]2[C@@H]3C[C@H](F)C4=CC(=O)C=C[C@]4(C)[C@@]3(F)[C@@H](O)C[C@@]21C` [Example 2, Cyanomethyl (6α,11β,16α,17α)-17-({[(1,1-dimethylpropyl)oxy]carbonyl}oxy)-6,9-difluoro-1-hydroxy-16-methyl-3-oxoandrosta-1,4-diene-17-carboxylate], for which the EC50 on glucocorticoid receptor [1] was under 0.1 nM; on Progesterone Receptor, over 100 nM. The Emax at glucocorticoid receptor [2] was under 10%.
